Assay [1] deals with T1, Alpha-2C adrenergic receptor (Homo sapiens, UniProt P18825).
T1 sequence (P18825 whole entry): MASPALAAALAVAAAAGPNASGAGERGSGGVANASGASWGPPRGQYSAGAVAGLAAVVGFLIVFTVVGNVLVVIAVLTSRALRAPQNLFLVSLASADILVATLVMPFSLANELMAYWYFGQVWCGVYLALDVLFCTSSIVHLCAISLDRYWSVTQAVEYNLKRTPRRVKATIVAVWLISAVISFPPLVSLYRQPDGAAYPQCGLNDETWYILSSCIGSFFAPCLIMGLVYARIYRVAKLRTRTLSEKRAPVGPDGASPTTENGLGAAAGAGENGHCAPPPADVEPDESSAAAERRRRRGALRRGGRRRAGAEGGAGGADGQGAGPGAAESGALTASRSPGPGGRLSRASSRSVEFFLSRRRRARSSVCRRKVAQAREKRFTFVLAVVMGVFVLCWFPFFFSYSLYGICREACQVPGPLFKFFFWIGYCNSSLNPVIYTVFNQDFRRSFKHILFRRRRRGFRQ
Type of assay: functional.

Assay [2] concerns the target Delta-type opioid receptor (Homo sapiens, UniProt P41143).
In assay [3] the target is Glutamate receptor ionotropic, NMDA 1 (Rattus norvegicus, UniProt P35439).
Assay [4] deals with T2, Equilibrative nucleoside transporter 1 (Homo sapiens, UniProt Q99808).
T2 sequence (Q99808 whole entry): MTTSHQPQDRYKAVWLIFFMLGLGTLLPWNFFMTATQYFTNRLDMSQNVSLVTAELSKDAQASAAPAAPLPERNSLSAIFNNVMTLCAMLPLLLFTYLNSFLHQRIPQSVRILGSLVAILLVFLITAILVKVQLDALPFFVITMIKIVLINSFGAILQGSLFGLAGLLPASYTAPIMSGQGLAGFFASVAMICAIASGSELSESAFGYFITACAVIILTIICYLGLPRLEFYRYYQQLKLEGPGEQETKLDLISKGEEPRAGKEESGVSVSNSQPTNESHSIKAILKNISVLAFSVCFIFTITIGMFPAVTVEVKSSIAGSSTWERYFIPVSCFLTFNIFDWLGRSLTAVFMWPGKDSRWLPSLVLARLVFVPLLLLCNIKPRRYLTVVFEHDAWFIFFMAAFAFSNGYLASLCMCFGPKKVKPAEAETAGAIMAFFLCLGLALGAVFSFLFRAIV

A further assay concerns the target T3, Adenosine receptor A1 (Homo sapiens, UniProt P30542).
T3 sequence (P30542 whole entry): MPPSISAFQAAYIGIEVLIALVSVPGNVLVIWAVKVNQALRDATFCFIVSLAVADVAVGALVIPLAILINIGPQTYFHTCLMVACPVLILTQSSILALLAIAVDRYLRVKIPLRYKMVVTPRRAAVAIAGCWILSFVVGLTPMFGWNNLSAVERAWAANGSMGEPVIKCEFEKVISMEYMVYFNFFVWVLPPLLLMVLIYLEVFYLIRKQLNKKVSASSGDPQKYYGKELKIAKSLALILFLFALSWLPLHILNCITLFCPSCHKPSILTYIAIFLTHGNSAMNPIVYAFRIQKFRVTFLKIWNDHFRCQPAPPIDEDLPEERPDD

Assay [5] concerns the target T4, Muscarinic acetylcholine receptor M1 (Homo sapiens, UniProt P11229).
T4 sequence (P11229 whole entry): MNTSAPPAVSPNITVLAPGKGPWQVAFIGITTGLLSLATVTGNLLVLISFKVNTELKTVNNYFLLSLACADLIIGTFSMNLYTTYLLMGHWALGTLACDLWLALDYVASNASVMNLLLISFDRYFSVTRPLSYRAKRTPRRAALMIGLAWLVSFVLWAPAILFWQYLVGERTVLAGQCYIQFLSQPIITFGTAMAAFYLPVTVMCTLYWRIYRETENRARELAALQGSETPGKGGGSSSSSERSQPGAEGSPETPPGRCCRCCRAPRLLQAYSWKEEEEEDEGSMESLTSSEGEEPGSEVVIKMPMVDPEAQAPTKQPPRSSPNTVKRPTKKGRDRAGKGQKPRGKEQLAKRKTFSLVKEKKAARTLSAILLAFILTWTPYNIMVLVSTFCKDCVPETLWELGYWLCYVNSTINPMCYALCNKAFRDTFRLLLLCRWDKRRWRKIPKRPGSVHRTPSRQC
Type of assay: functional.

For the next assay, the target named is T5, Progesterone receptor (Homo sapiens, UniProt P06401).
T5 sequence (P06401 whole entry): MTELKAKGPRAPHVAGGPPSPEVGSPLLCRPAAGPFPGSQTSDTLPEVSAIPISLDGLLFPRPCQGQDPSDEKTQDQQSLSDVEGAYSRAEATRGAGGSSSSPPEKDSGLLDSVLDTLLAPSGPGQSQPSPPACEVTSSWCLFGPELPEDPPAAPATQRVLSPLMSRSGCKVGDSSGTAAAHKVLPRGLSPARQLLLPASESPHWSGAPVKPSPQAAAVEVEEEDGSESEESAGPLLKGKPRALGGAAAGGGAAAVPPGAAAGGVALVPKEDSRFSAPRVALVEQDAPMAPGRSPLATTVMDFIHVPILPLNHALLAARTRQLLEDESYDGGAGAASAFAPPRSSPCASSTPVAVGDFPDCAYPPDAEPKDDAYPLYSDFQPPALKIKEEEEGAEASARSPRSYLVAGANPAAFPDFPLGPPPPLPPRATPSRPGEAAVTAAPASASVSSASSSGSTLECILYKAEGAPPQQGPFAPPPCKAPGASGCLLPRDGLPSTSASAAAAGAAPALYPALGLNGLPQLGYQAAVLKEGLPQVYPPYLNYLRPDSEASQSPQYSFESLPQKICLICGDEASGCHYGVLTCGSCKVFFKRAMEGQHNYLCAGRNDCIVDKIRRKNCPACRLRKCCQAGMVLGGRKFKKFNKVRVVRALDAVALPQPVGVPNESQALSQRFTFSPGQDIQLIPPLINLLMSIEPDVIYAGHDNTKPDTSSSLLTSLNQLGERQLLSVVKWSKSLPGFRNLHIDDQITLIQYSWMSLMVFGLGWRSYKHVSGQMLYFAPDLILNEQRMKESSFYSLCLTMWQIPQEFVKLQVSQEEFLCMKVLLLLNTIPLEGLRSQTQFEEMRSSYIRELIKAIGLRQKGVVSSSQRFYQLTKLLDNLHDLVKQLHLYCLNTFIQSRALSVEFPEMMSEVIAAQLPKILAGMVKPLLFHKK
Type of assay: functional.

Assay [6] deals with 5-hydroxytryptamine receptor 2B (Homo sapiens, UniProt P41595). Type of assay: functional, cell-based.
The next assay concerns the target Mu-type opioid receptor (Homo sapiens, UniProt P35372). The experiment in a line: biochemical. Type of assay: functional.
Note: assay procedure not described here.

Sequence of 5-hydroxytryptamine receptor 2B (P41595 whole entry): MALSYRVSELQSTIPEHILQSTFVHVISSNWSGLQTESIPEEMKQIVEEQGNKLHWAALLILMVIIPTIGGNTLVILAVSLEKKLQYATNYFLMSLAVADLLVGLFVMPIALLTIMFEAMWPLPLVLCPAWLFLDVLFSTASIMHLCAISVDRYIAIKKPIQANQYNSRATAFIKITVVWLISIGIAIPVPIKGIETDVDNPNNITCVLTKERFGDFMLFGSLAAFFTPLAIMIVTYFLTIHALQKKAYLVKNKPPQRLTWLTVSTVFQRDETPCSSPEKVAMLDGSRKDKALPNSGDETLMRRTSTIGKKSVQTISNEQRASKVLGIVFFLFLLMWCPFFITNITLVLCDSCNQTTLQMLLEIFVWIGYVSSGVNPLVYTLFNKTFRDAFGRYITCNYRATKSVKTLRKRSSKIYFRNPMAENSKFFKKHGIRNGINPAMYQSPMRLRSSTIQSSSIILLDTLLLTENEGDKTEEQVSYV
Sequence of Delta-type opioid receptor (P41143 whole entry): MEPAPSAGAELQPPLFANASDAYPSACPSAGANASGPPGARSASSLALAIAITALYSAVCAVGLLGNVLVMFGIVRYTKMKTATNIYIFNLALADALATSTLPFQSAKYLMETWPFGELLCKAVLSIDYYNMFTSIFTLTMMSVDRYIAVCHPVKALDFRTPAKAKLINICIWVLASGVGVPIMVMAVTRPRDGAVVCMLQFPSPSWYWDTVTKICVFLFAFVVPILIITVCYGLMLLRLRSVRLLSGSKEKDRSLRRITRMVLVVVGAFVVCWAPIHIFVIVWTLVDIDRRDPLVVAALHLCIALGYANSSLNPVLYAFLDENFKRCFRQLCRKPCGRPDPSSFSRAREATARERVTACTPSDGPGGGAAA
Sequence of Mu-type opioid receptor (P35372 whole entry): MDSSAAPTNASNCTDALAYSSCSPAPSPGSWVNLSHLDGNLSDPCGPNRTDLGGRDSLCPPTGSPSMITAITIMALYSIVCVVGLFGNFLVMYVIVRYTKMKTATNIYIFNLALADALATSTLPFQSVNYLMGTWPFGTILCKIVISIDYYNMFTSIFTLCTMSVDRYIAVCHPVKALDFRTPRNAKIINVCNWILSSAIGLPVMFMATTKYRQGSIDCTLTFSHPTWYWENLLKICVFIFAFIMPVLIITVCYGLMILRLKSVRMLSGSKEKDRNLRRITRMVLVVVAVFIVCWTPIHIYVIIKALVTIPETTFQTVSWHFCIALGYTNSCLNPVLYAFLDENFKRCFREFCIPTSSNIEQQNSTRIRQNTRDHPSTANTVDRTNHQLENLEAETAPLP

Consider `Cn1c(=O)cc(N2CCC[C@@H](N)C2)n(Cc2ccccc2C#N)c1=O` [ALOGLIPTIN], for which the AC50 in assay [1] was greater than 10 µM; in assay [2] it was greater than 10 µM; in assay [3], greater than 10 µM; in [4], greater than 30 µM; at Adenosine receptor A1, greater than 30 µM; in assay [5], greater than 10 µM.

For `O=C1CN=C(c2ccccn2)c2cc(Br)ccc2N1` [BROMAZEPAM], the AC50 in assay [1] is greater than 10 µM; in assay [2], greater than 30 µM; in assay [3], greater than 10 µM; in assay [4], greater than 10 µM; at Adenosine receptor A1, greater than 10 µM; on Progesterone receptor, greater than 10 µM. The AC50 in assay [5] and in assay [6] was greater than 10 µM throughout.

With `Oc1ccc2c(c1)[C@@]13CCCC[C@@]1(O)[C@@H](C2)N(CC1CCC1)CC3` [BUTORPHANOL], the AC50 in [1] is greater than 30 µM; in assay [2], 0.18 µM; in assay [3], greater than 30 µM; in assay [4], greater than 30 µM; at Adenosine receptor A1, greater than 30 µM; at Progesterone receptor, greater than 30 µM. The half-maximal activity concentration (AC50) in assay [5] and in [6] was greater than 30 µM throughout.

`CC(=O)[C@@]1(O)CC[C@H]2[C@@H]3C=C(Cl)C4=CC(=O)[C@@H]5C[C@@H]5[C@]4(C)[C@H]3CC[C@@]21C` [CYPROTERONE]: the concentration at half-maximal activity (AC50) is greater than 10 µM in assay [1]; greater than 30 µM in assay [2]; greater than 30 µM on Mu-type opioid receptor; greater than 10 µM in assay [3]; greater than 10 µM in assay [4]; greater than 10 µM at Adenosine receptor A1. The AC50 in assay [5] and in assay [6] was greater than 10 µM each time.

`COc1cc2ncnc(Nc3ccc(F)c(Cl)c3)c2cc1NC(=O)/C=C/CN1CCCCC1` [DACOMITINIB ANHYDROUS]: the concentration at half-maximal activity (AC50) is 21 µM in assay [1], greater than 10 µM on Progesterone receptor and 11 µM in assay [5].

Consider `CC(=O)OCC(=O)[C@@]1(O)[C@H](C)C[C@H]2[C@@H]3CCC4=CC(=O)C=C[C@]4(C)[C@@]3(F)[C@@H](O)C[C@@]21C` [DEXAMETHASONE ACETATE], for which the AC50 in assay [1] is greater than 10 µM; in [2], greater than 30 µM; in assay [3], greater than 10 µM; in assay [4], greater than 30 µM; at Adenosine receptor A1 it was greater than 30 µM; in [5] it was greater than 10 µM. This molecule gave an AC50 in assay [6] greater than 10 µM.

Consider `CCN(CC)CCN1C(=O)CN=C(c2ccccc2F)c2cc(Cl)ccc21` [FLURAZEPAM], for which the concentration at half-maximal activity (AC50) in assay [1] was greater than 10 µM; in assay [2], greater than 30 µM; in assay [3], greater than 10 µM; in assay [4], greater than 30 µM; at Adenosine receptor A1, greater than 30 µM; in [5], greater than 10 µM. Further, in assay [6], the concentration at half-maximal activity (AC50) is greater than 10 µM.

Consider `CCCCCC(=O)O[C@]1(C(C)=O)CC[C@H]2[C@@H]3CCC4=CC(=O)CC[C@]4(C)[C@H]3CC[C@@]21C` [HYDROXYPROGESTERONE CAPROATE], for which the AC50 (in assay [1]; in [2]; at Mu-type opioid receptor; in assay [3]; in assay [4]; on Adenosine receptor A1) was greater than 30 µM in each case. Further, the concentration at half-maximal activity (AC50) in assay [5] and in assay [6] was greater than 30 µM each time.

`CC(=O)[C@]1(O)Cc2c(O)c3c(c(O)c2[C@@H](O[C@H]2C[C@H](N)[C@H](O)[C@H](C)O2)C1)C(=O)c1ccccc1C3=O` [IDARUBICIN]: the AC50 is 19 µM in assay [2]; greater than 30 µM at Mu-type opioid receptor; greater than 30 µM in assay [3]; greater than 30 µM in assay [4]; greater than 10 µM on Adenosine receptor A1.

Regarding `Nc1cc(-c2ccncc2)c[nH]c1=O` [INAMRINONE], the AC50 is greater than 10 µM in assay [1]; greater than 30 µM in assay [2]; greater than 10 µM in assay [3]; greater than 30 µM in assay [4]; greater than 30 µM at Adenosine receptor A1; greater than 10 µM in [6].

Consider `COc1cc2c(cc1OC)C(CCc1ccc(Cl)cc1)N(C)CC2` (stereo not drawn) [METHOPHOLINE], for which the concentration at half-maximal activity (AC50) was greater than 10 µM in assay [1]; greater than 30 µM in assay [2]; greater than 10 µM in assay [3]; greater than 30 µM in assay [4]; greater than 30 µM at Adenosine receptor A1; greater than 30 µM on Progesterone receptor. For the same molecule, the AC50 in assay [5] and in assay [6] was greater than 10 µM throughout.

Take `Cc1ncc2n1-c1ccc(Cl)cc1C(c1ccccc1F)=NC2` [MIDAZOLAM]: the AC50 in assay [1] is greater than 10 µM; in assay [2], greater than 30 µM; in assay [3], greater than 10 µM; in assay [4], greater than 30 µM; on Adenosine receptor A1 it was greater than 30 µM; in assay [5], greater than 10 µM. The molecule further returned an AC50 in [6] greater than 10 µM.

As for `C/C(=C\C(=O)OCCCCCCCCC(=O)O)C[C@@H]1OC[C@H](C[C@@H]2O[C@H]2[C@@H](C)[C@H](C)O)[C@@H](O)[C@H]1O` [MUPIROCIN], the concentration at half-maximal activity (AC50) in assay [1] is greater than 10 µM; in assay [2], greater than 30 µM; in assay [3], greater than 10 µM; in [4], greater than 30 µM; on Adenosine receptor A1, greater than 10 µM; on Progesterone receptor, greater than 10 µM. Further, the concentration at half-maximal activity (AC50) in assay [5] and in assay [6] was greater than 10 µM throughout.

With `CN(C(=O)c1c(O)c2ccccc2n(C)c1=O)c1ccccc1` [ROQUINIMEX], the half-maximal activity concentration (AC50) in assay [1] is greater than 30 µM; at Progesterone receptor, 29 µM; in assay [5] it was greater than 30 µM.

On to `OCc1cc(C(O)CNCCCCCCOCCCCc2ccccc2)ccc1O` (stereo not drawn) [SALMETEROL], for which the half-maximal activity concentration (AC50) in assay [1] was greater than 10 µM; in [2] it was greater than 30 µM; in assay [3], greater than 10 µM; in [4] it was greater than 30 µM; at Adenosine receptor A1, greater than 30 µM; at Progesterone receptor, greater than 30 µM. The AC50 in assay [5] is greater than 10 µM; in assay [6], 12 µM.

For `Cn1cnc2c(F)c(Nc3ccc(Br)cc3Cl)c(C(=O)NOCCO)cc21` [SELUMETINIB], the AC50 is greater than 10 µM in [1], greater than 30 µM in [4] and greater than 10 µM in assay [5].

One may read the AC50 as the concentration giving half of the maximal activity seen. A high value points to weaker potency.

The values are drawn from ChEMBL document CHEMBL5291721, “A preclinical secondary pharmacology resource illuminates target-adverse drug reaction associations of marketed drugs” (Nat Commun, 2023).
